Drawing on paper PMC7213978, “The dynamic interplay of host and viral enzymes in type III CRISPR-mediated cyclic nucleotide signalling” (eLife, 2020), this text covers Kd for one molecule.

Molecules are shown by their SMILES.

This test deals with T1, AcrIII-1 (SIRV1 gp29) (Sulfolobus islandicus rod-shaped virus 1, UniProt Q8QL27, H47A).
T1 construct: gene 114
The test can be described thus: biochemical.

T1 sequence (Q8QL27 whole entry H47A): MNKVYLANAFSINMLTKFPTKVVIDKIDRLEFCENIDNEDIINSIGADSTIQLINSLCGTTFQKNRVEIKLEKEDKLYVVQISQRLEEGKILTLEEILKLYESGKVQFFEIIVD

On to `Nc1ncnc2c1ncn2[C@@H]1O[C@@H]2COP(=O)(O)O[C@H]3[C@@H](O)[C@H](n4cnc5c(N)ncnc54)O[C@@H]3COP(=O)(O)O[C@H]3[C@@H](O)[C@H](n4cnc5c(N)ncnc54)O[C@@H]3COP(=O)(O)O[C@H]3[C@@H](O)[C@H](n4cnc5c(N)ncnc54)O[C@@H]3COP(=O)(O)O[C@H]2[C@H]1O` [cA4, cyclic tetra-adenylate], for which the Kd was about 25 nM.

For orientation: Kd means the equilibrium constant for the complex coming apart. Higher therefore signals a looser complex.
